Experimental data from patent US20120059052A1, “PRENYLFLAVONOID FORMULATIONS” (BIOACTIVES, INC., priority 2005, published 2012).

Columns and labels:
[1] = molecular target: T1, Cyp1B 1 (Homo sapiens, UniProt Q16678); settings: cDNA-expressed human enzyme; cited from earlier work
T1 sequence (Q16678 1-543): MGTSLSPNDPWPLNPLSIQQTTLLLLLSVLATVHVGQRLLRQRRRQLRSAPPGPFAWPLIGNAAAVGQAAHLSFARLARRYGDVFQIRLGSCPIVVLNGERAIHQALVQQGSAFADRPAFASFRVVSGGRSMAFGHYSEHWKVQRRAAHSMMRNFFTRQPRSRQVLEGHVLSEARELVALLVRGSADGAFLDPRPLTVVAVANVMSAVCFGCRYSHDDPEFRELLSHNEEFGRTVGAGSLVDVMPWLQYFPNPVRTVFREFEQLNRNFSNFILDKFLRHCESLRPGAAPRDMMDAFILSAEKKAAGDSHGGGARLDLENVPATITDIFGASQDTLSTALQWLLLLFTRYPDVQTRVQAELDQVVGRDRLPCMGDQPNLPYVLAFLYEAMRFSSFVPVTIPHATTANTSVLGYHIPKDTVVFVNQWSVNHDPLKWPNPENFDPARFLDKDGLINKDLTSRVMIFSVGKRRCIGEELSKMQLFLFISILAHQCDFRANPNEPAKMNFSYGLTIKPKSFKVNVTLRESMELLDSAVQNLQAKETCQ

[2] = system: endothelial cells; settings: endothelial cells invading collagen gel, capillary-like tubes; cited from earlier work
[3] = molecular target: T2, Cyp1A1 (Homo sapiens, UniProt P04798); settings: cDNA-expressed human enzyme; cited from earlier work
T2 sequence (P04798 1-512): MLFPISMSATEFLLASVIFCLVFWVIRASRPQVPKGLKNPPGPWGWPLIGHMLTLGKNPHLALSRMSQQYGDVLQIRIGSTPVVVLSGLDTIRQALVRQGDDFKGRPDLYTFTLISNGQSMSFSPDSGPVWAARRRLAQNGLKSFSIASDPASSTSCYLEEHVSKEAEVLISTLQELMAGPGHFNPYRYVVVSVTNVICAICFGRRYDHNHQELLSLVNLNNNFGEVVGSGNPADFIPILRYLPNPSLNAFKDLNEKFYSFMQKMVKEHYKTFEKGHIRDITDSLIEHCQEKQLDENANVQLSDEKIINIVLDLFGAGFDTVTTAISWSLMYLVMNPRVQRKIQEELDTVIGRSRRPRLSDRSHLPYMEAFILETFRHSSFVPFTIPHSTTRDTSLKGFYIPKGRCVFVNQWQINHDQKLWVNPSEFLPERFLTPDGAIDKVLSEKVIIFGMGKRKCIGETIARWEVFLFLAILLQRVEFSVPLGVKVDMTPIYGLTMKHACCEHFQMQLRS

[4] = molecular target: T3, Cyp1A2 (Homo sapiens, UniProt P05177); settings: cDNA-expressed human enzyme; cited from earlier work
T3 sequence (P05177 1-516): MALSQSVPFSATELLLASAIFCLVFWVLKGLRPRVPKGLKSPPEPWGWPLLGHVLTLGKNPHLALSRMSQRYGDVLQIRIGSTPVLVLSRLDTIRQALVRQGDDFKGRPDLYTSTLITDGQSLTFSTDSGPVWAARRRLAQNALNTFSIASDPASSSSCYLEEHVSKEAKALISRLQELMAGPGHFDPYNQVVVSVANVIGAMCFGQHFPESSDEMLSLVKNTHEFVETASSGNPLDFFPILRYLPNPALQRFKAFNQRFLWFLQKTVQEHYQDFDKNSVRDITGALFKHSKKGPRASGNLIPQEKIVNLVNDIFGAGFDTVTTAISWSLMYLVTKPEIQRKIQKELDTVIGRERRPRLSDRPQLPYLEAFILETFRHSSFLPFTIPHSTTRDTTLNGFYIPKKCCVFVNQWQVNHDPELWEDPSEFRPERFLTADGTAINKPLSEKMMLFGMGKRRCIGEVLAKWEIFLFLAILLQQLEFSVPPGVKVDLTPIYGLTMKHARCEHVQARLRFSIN

[5] = molecular target: T4, HMG-CoA reductase (Homo sapiens, UniProt P04035); experiment: HMG-CoA reductase assay in isolated liver microsomes; type: biochemical
T4 construct: from tissue; host or cells: liver microsomes
T4 sequence (P04035 1-888): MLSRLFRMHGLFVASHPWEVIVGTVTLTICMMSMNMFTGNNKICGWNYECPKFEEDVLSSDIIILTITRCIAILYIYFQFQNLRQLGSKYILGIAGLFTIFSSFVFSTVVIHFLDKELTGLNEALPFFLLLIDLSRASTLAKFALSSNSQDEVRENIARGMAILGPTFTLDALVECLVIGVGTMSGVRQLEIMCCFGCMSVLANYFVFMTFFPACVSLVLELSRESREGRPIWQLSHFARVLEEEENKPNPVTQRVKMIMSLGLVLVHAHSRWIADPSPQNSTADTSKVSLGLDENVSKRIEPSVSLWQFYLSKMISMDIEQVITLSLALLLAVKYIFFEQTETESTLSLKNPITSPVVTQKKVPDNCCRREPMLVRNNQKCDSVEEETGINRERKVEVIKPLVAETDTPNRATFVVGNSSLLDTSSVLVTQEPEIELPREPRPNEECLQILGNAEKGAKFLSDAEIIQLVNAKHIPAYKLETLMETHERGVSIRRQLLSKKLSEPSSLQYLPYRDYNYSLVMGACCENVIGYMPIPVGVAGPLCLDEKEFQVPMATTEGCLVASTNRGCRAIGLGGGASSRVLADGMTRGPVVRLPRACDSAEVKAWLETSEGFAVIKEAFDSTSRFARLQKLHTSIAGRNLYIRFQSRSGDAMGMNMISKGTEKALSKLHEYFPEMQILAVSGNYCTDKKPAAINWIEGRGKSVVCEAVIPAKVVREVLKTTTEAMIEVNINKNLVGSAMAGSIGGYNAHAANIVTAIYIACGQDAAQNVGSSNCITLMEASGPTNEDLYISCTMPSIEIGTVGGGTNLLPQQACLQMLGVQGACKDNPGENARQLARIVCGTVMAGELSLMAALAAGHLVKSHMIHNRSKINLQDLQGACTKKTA
Description: HMG-CoA reductase assays were performed in which increasing concentrations of xanthohumol (1 μM to 100 μM) were added to isolated liver microsomes. Xanthohumol had no effect on HMG-CoA reductase activity. As a positive control, atorvastatin (10 nM and 1 μM) was tested in the same assay, which inhibited reductase activity by 58% and 87% respectively. The protocol followed was as published in Telford et al. ATVB 2002; 22: 1884-1891.

[6] = system: HepG2 cells; experiment: Incorporation of 14C-acetic acid into cholesterol in HepG2 cells; type: cell-based; settings: Homo sapiens, read-out: Inhibition of acetate incorporation into cholesterol
Description: The incorporation of ^14C-acetic acid into cholesterol was examined in HepG2 cells. […] The IC50 was approximately 20 μM. In the same HepG2 cell assay system, atorvastatin (10 nM and 1 μM) inhibited acetate incorporation into cholesterol by 20% and 80% respectively.

[7] = system: Caco-2 cell monolayers; experiment: Caco-2 plate certification with control compounds; type: in vitro ADME; settings: TW12, passage 63, age 22 days
Description: To test the permeability of xanthohumol across Caco-2 cell monolayers, Caco-2 cell monolayers were grown to confluence on collagen-coated, microporous, polycarbonate membranes in 12-well Costar Transwell® plates. Details of the plates and their certification are shown below in Table 3. The test article was also the aqueous xanthohumol formulation, and the dosing concentration was 2 μM in the assay buffer (HBSSg) as in the previous example. Cell monolayers were dosed on the apical side (A-to-B) or basolateral side (B-to-A) and incubated at 37° C. with 5% CO2 in a humidified incubator. Samples were taken from the donor chamber at 120 minutes, and samples from the receiver chamber were collected at 60 and 120 minutes. Each determination was performed in duplicate. Lucifer yellow permeability was also measured for each monolayer after being subjected to the test article to ensure no damage was inflicted to the cell monolayers during the permeability experiment. All samples were assayed for Xanthohumol by LC/MS/MS using electrospray ionization. The apparent permeability (Papp), and percent recovery were calculated as described above.

[8] = system: Caco-2 cell monolayers; experiment: Permeability across Caco-2 cell monolayers; type: in vitro ADME; settings: all monolayers, after exposure to test article
Description: Percent Recovery=100×((Vr×Cr^final)+(Vd×Cd^final))/(Vd×C0)
• dCr/dt is the slope of the cumulative concentration in the receiver compartment versus time in μMs^−1. • Vr is the volume of the receiver compartment in cm^3. • Vd is the volume of the donor compartment in cm^3. • A is the area of the cell-free insert (1.13 cm^2 for 12-well Transwell). • Cr^final is the cumulative receiver concentration in μM at the end of the incubation period. • Cd^final is the concentration of the donor in μM at the end of the incubation period. • C0 is the initial concentration of the dosing solution in μM.
Each determination was performed in duplicate.

Molecule: CC(C)=CCc1c(O)cc(O)c2c1O[C@H](c1ccc(O)cc1)CC2=O [8-prenylnaringenin]
- Inhibition of Cyp1B1 [1]: strongly inhibit
- Effect on angiogenesis in vitro [2]: inhibits angiogenesis
- Inhibition of Cyp1A1 [3]: strongly inhibit
- Inhibition of Cyp1A2 [4]: strongly inhibit

Molecule: CC(C)c1c(C(=O)Nc2ccccc2)c(-c2ccccc2)c(-c2ccc(F)cc2)n1CC[C@@H](O)C[C@@H](O)CC(=O)O [atorvastatin, reference compound]
- inhibition at 0.01 µM ([5]; 10 nM): 58%
- inhibition at 1 µM ([5]; 1 μM): 87%
- inhibition at 0.01 µM ([6]; 10 nM): 20%
- inhibition at 1 µM ([6]; 1 μM): 80%

Molecule: COc1cc(O)c(CC=C(C)C)c2c1C(=O)CC(c1ccc(O)cc1)O2 (stereo not shown) [isoxanthohumol]
- Inhibition of Cyp1B1 [1]: strongly inhibit
- Inhibition of Cyp1A1 [3]: strongly inhibit
- Inhibition of Cyp1A2 [4]: strongly inhibit

Molecule: Lucifer Yellow [reference compound]
- Papp [7]: 1.3e-07 cm/s
- Lucifer yellow Papp, post-experiment integrity control [8]: < 8e-07 cm/s
